Data published in patent publication US9809865B2, “Anti-microbial agent from Paenibacillus sp. and methods and uses thereof” (Best Environmental Technologies, Inc., priority 2009, dated 2017).

Tests used:
Listeria innocua HPB 13 = experiment: Agar well diffusion method; assay type: cell-based; design: key: No inhibition at concentrations up of 0.1 μgml−1.; +: Diameter of the inhibition zone 10 ± 2 mm; ++: Diameter of the inhibition zone 16 ± 2 mm; +++: Diameter of the inhibition zone 28 ± 2 mm; conditions: medium TSB; polymyxin B at 0.1 μg ml^−1
Description: (§1) The qualitative antimicrobial spectrum of P. polymyxa culture supernatant was determined using the agar well diffusion method (Wolf and Gibbons 1996). Briefly, a 25-ml volume of molten tryptic soy agar (0.75% agar w/v) was cooled to 47° C. and seeded with 1% (v/v) overnight TSB culture of an indicator strain. The seeded agar was then poured into a sterile Petri plate and allowed to solidify at room temperature. Wells (7 mm) were cut in the solidified agar using a sterile metal cork borer and filled with 80 μl of supernatant. The plates were left at 5° C. for 2 h to allow diffusion of the tested aliquot and then incubated aerobically for 18 h at 30° C. Absence or presence of inhibition zones as well as their diameters were recorded.

[1] = system: Paenibacillus polymyxa ATCC 7070; experiment: Agar well diffusion method; assay type: cell-based; design: key: No inhibition at concentrations up of 0.1 μgml−1.; +: Diameter of the inhibition zone 10 ± 2 mm; ++: Diameter of the inhibition zone 16 ± 2 mm; +++: Diameter of the inhibition zone 28 ± 2 mm; conditions: medium LB; polymyxin B at 0.1 μg ml^−1
Description: as §1

Listeria ivanovii HPB 28 = experiment: Agar well diffusion method; assay type: cell-based; design: key: No inhibition at concentrations up of 0.1 μgml−1.; +: Diameter of the inhibition zone 10 ± 2 mm; ++: Diameter of the inhibition zone 16 ± 2 mm; +++: Diameter of the inhibition zone 28 ± 2 mm; conditions: medium TSB; polymyxin B at 0.1 μg ml^−1
Description: as §1

[2] = system: Paenibacillus polymyxa JB05-01-1; experiment: Agar well diffusion method; assay type: cell-based; design: key: No inhibition at concentrations up of 0.1 μgml−1.; +: Diameter of the inhibition zone 10 ± 2 mm; ++: Diameter of the inhibition zone 16 ± 2 mm; +++: Diameter of the inhibition zone 28 ± 2 mm; conditions: medium LB; polymyxin B at 0.1 μg ml^−1
Description: as §1

[3] = system: Fibrobacter succinogenes ATCC 19169; experiment: Agar well diffusion method; assay type: cell-based; conditions: medium L-10; polymyxin B at 0.1 μg ml^−1
Description: as §1, with “Briefly, a 25-ml volume of molten tryptic soy agar (0.75% agar w/v) was cooled to 47° C. and seeded with 1% (v/v) overnight TSB culture of an indicator strain.” left out

[4] = system: Butyrivibrio fibrisolvens LRC OR85; experiment: Agar well diffusion method; assay type: cell-based; conditions: medium L-10; polymyxin B at 0.1 μg ml^−1
Description: as §1, with “Briefly, a 25-ml volume of molten tryptic soy agar (0.75% agar w/v) was cooled to 47° C. and seeded with 1% (v/v) overnight TSB culture of an indicator strain.” left out

[5] = system: Pediococcus acidilactici ATCC 25740; experiment: Agar well diffusion method; assay type: cell-based; design: key: No inhibition at concentrations up of 0.1 μgml−1.; +: Diameter of the inhibition zone 10 ± 2 mm; ++: Diameter of the inhibition zone 16 ± 2 mm; +++: Diameter of the inhibition zone 28 ± 2 mm; conditions: medium MRS; polymyxin B at 0.1 μg ml^−1
Description: as §1, with “Briefly, a 25-ml volume of molten tryptic soy agar (0.75% agar w/v) was cooled to 47° C. and seeded with 1% (v/v) overnight TSB culture of an indicator strain.” left out

[6] = system: Enterococcus mundtii LRC 8369; experiment: Agar well diffusion method; assay type: cell-based; design: key: No inhibition at concentrations up of 0.1 μgml−1.; +: Diameter of the inhibition zone 10 ± 2 mm; ++: Diameter of the inhibition zone 16 ± 2 mm; +++: Diameter of the inhibition zone 28 ± 2 mm; conditions: medium LB; polymyxin B at 0.1 μg ml^−1
Description: as §1, with “Briefly, a 25-ml volume of molten tryptic soy agar (0.75% agar w/v) was cooled to 47° C. and seeded with 1% (v/v) overnight TSB culture of an indicator strain.” left out

[7] = system: Pediococcus pentosaceus ATCC 25745; experiment: Agar well diffusion method; assay type: cell-based; design: key: No inhibition at concentrations up of 0.1 μgml−1.; +: Diameter of the inhibition zone 10 ± 2 mm; ++: Diameter of the inhibition zone 16 ± 2 mm; +++: Diameter of the inhibition zone 28 ± 2 mm; conditions: medium LB; polymyxin B at 0.1 μg ml^−1
Description: as §1, with “Briefly, a 25-ml volume of molten tryptic soy agar (0.75% agar w/v) was cooled to 47° C. and seeded with 1% (v/v) overnight TSB culture of an indicator strain.” left out

[8] = system: Streptococcus bovis ATCC 33317; experiment: Agar well diffusion method; assay type: cell-based; design: key: No inhibition at concentrations up of 0.1 μgml−1.; +: Diameter of the inhibition zone 10 ± 2 mm; ++: Diameter of the inhibition zone 16 ± 2 mm; +++: Diameter of the inhibition zone 28 ± 2 mm; conditions: medium LB; polymyxin B at 0.1 μg ml^−1
Description: as §1, with “Briefly, a 25-ml volume of molten tryptic soy agar (0.75% agar w/v) was cooled to 47° C. and seeded with 1% (v/v) overnight TSB culture of an indicator strain.” left out

[9] = system: Lactococcus lactis ATCC 7962; experiment: Agar well diffusion method; assay type: cell-based; design: key: No inhibition at concentrations up of 0.1 μgml−1.; +: Diameter of the inhibition zone 10 ± 2 mm; ++: Diameter of the inhibition zone 16 ± 2 mm; +++: Diameter of the inhibition zone 28 ± 2 mm; conditions: medium MRS; polymyxin B at 0.1 μg ml^−1
Description: as §1, with “Briefly, a 25-ml volume of molten tryptic soy agar (0.75% agar w/v) was cooled to 47° C. and seeded with 1% (v/v) overnight TSB culture of an indicator strain.” left out

[10] = system: Bacillus circulans LRC 9E2; experiment: Agar well diffusion method; assay type: cell-based; design: key: No inhibition at concentrations up of 0.1 μgml−1.; +: Diameter of the inhibition zone 10 ± 2 mm; ++: Diameter of the inhibition zone 16 ± 2 mm; +++: Diameter of the inhibition zone 28 ± 2 mm; conditions: medium LB; polymyxin B at 0.1 μg ml^−1
Description: as §1, with “Briefly, a 25-ml volume of molten tryptic soy agar (0.75% agar w/v) was cooled to 47° C. and seeded with 1% (v/v) overnight TSB culture of an indicator strain.” left out

[11] = system: Paenibacillus polymyxa ATCC 43865; experiment: Agar well diffusion method; assay type: cell-based; design: key: No inhibition at concentrations up of 0.1 μgml−1.; +: Diameter of the inhibition zone 10 ± 2 mm; ++: Diameter of the inhibition zone 16 ± 2 mm; +++: Diameter of the inhibition zone 28 ± 2 mm; conditions: medium LB; polymyxin B at 0.1 μg ml^−1
Description: as §1, with “Briefly, a 25-ml volume of molten tryptic soy agar (0.75% agar w/v) was cooled to 47° C. and seeded with 1% (v/v) overnight TSB culture of an indicator strain.” left out

[12] = system: Bacillus lecheniformis LRC 8422; experiment: Agar well diffusion method; assay type: cell-based; design: key: No inhibition at concentrations up of 0.1 μgml−1.; +: Diameter of the inhibition zone 10 ± 2 mm; ++: Diameter of the inhibition zone 16 ± 2 mm; +++: Diameter of the inhibition zone 28 ± 2 mm; conditions: medium LB; polymyxin B at 0.1 μg ml^−1
Description: as §1, with “Briefly, a 25-ml volume of molten tryptic soy agar (0.75% agar w/v) was cooled to 47° C. and seeded with 1% (v/v) overnight TSB culture of an indicator strain.” left out

[13] = system: Escherichia coli LRC SA1650; experiment: Agar well diffusion method; assay type: cell-based; conditions: medium TSB; polymyxin B at 0.1 μg ml^−1
Description: as §1

[14] = system: Pseudomonas fluorescens LRC R73; experiment: Agar well diffusion method; assay type: cell-based; conditions: medium TSB; polymyxin B at 0.1 μg ml^−1
Description: as §1

Escherichia coli LRC RR1 = experiment: Agar well diffusion method; assay type: cell-based; conditions: medium TSB; polymyxin B at 0.1 μg ml^−1
Description: as §1

Escherichia coli LRC TB1 = experiment: Agar well diffusion method; assay type: cell-based; conditions: medium TSB; polymyxin B at 0.1 μg ml^−1
Description: as §1

[15] = system: Pantoea agglomerans LRC BC1; experiment: Agar well diffusion method; assay type: cell-based; conditions: medium TSB; polymyxin B at 0.1 μg ml^−1
Description: as §1

Escherichia coli RR1 = experiment: Sensitivity to enzymes, detergents or urea, residual activity by agar diffusion test; assay type: physicochemical; conditions: polymyxin B 0.1 μg ml^−1
Description: The sensitivities of the antimicrobial agent to proteases (all from Sigma-Aldrich, Oakville, ON) or other agents was tested by treating P. polymyxa JB05-01-1 culture supernatant with 2 mg ml^−1 final concentration of proteinase K (Tritirachium album), α-chymotrypsin (bovine pancreas), lipase (Sigma-Aldrich, Oakville, ON), trypsin (porcine pancreas), urea (Sigma-Aldrich, St. Louis Mo.), sodium dodecyl sulfate (SDS) (Sigma-Aldrich, St. Louis Mo.) for 1 h at 37° C. (Motta et al. 2007). Thermal stability of the antimicrobial activity was determined by holding aliquots (1000 μl) of 20 h culture supernatant at temperatures ranging from 50° C. to 90° C. for 30 min or at 100° C. for 10 min. The effect of pH was determined by adjusting the pH of P. polymyxa JB05-01-1 culture supernatant from 2 to 9 using 5 M HCl or NaOH. The activity of each sample was compared with the activity of untreated P. polymyxa JB05-01 culture supernatant at pH 6.8.
The effect of several organic solvents was evaluated by stirring 20 h culture supernatant for 2 h with 10% (v/v) acetonitrile, hexane, propanol, ethanol, toluene, acetone, butanol or methanol (all solvents were obtained from Sigma-Aldrich, St. Louis Mo.). Residual antimicrobial activities were tested using the agar diffusion assay against E. coli RR1 as described herein, with controls for effects of residual solvent.

E. coli RR1 = experiment: Effect of culture supernatant on exponentially growing E. coli RR1 (viable counts, OD600); assay type: cell-based, Escherichia coli; conditions: viability of E. coli RR1 cells; OD600nm constant
Description: To determine the effect of P. polymyxa JB05-01-1 culture supernatant, E. coli RR1 cells were cultivated in the presence of concentrated P. polymyxa culture supernatant containing JB05-01-1 at final total activity of 0, 32, and 96 AU/ml. The OD600nm of culture was determined every two hours using a multi-detection microplate reader (Bio-Teck instrument Inc, Winooski, Vt., USA). The corresponding final cell concentration expressed as CFU/ml was determined as described by Naghmouchi et al. (2008). The inhibitory activity (I.A.) of culture supernatant containing JB05-01-1 was calculated as a percentage, I.A.=100-100[OD600(x)/OD600(i)], where (x) is culture supernatant containing JB05-01-1 at the corresponded total activity and (i) is the control culture. Data was reported as means of duplicate analyses.

## Polymyxin B
Listeria innocua HPB 13
  Inhibition (inhibition zone): −
[1]
  Inhibition (inhibition zone): −
Listeria ivanovii HPB 28
  Inhibition (inhibition zone): −
[2]
  Inhibition (inhibition zone): −
[3]
  Inhibition (inhibition zone): + (Diameter of the inhibition zone 10 ± 2 mm)
[4]
  Inhibition (inhibition zone): + (Diameter of the inhibition zone 10 ± 2 mm)
[5]
  Inhibition (inhibition zone): −
[6]
  Inhibition (inhibition zone): −
[7]
  Inhibition (inhibition zone): −
[8]
  Inhibition (inhibition zone): −
[9]
  Inhibition (inhibition zone): −
[10]
  Inhibition (inhibition zone): −
[11]
  Inhibition (inhibition zone): −
[12]
  Inhibition (inhibition zone): −
[13]
  Inhibition (inhibition zone): ++ (Diameter of the inhibition zone 16 ± 2 mm)
[14]
  Inhibition (inhibition zone): ++ (Diameter of the inhibition zone 16 ± 2 mm)
Escherichia coli LRC RR1
  Inhibition (inhibition zone): +++ (Diameter of the inhibition zone 28 ± 2 mm)
Escherichia coli LRC TB1
  Inhibition (inhibition zone): +++ (Diameter of the inhibition zone 28 ± 2 mm)
[15]
  Inhibition (inhibition zone): + (Diameter of the inhibition zone 10 ± 2 mm)
Escherichia coli RR1; Chymotrypsin 2 mg ml^−1, 1 h at 37° C.
  % of residual activity: 79.5%
Escherichia coli RR1; Lipase 2 mg ml^−1, 1 h at 37° C.
  % of residual activity: 58.3%
Escherichia coli RR1; Proteinase K 2 mg ml^−1, 1 h at 37° C.
  % of residual activity: 4.5%
Escherichia coli RR1; SDS 2 mg ml^−1, 1 h at 37° C.
  % of residual activity: 70.1%
Escherichia coli RR1; Trypsin 2 mg ml^−1, 1 h at 37° C.
  % of residual activity: 62.5%
Escherichia coli RR1; Urea 2 mg ml^−1, 1 h at 37° C.
  % of residual activity: 62.5%
E. coli RR1
  Mode of action: bactericidal action
